For experiment [1], the target named is T1, HCV NS3 protease (full-length NS3/NS4A-2 complex) (Hepatitis C virus genotype 1a, UniProt P27958).
T1 construct: Recombinant E. coli or Baculovirus full-length NS3 was diluted to 3.33 μM with assay buffer; host or cells: E. coli or baculovirus (insect cells)
The experiment in a line: NS3 Inhibition Assay (NS3-NS4 protease assay, RETS1 substrate). It counts as biochemical. The note with it: NS3/NS4A-2, RETS1 substrate, 10 minutes pre-incubation. Here is the method: NS3 Complex Formation with NS4A-2.
Recombinant E. coli or Baculovirus full-length NS3 was diluted to 3.33 μM with assay buffer and the material was transferred to an eppendorf tube and placed in a water bath in a 4° C. refrigerator. The appropriate amount of NS4A-2 diluted to 8.3 mM in assay buffer was added to an equal the volume of NS3 above (conversion factor—3.8 mg/272 μL assay buffer). The material was transferred to an eppendorf tube and placed in water bath in a 4° C. refrigerator.
After equilibration to 4° C., equal volumes of NS3 and NS4A-2 solutions were combined in an eppendorf tube, mixed gently with a manual pipettor, and incubated for 15 minutes in the 4° C. water bath. Final concentrations in the mixture are 1.67 μM NS3, 4.15 mM NS4A-2 (2485-fold molar excess NS4A-2).
After 15 minutes at 4° C., the NS3/NS4A-2 eppendorf tube was removed and placed in a room temperature water bath for 10 minutes. NS3/NS4A-2 was aliquoted at appropriate volumes and stored at −80° C. (E. coli NS3 run at 2 nM in assay, aliquot at 25 μL. BV NS3 run at 3 nM in assay, aliquot at 30 μL).
Step a. Sample compounds were dissolved to 10 mM in DMSO then diluted to 2.5 mM (1:4) in DMSO. Typically, compounds were added to an assay plate at 2.5 mM concentration, yielding upon dilution a starting concentration of 50 μM in the assay inhibition curve. Compounds were serial diluted in assay buffer to provide test solutions at lower concentrations.
Step 1. The E. coli. NS3/NS4A-2 was diluted to 4 nM NS3 (1:417.5 of 1.67 μM stock−18 μL 1.67 μM stock+7497 μL assay buffer). The BV NS3/NS4A-2 was diluted to 6 nM NS3 (1:278.3 of 1.67 μM stock−24 μL 1.67 μM stock+6655 μL assay buffer).
Step. 2. Using the manual multichannel pipettor, and being careful not to introduce bubbles into the plate, 50 μL assay buffer was added to wells A01-H01 of a black Costar 96-well polypropylene storage plate.
Step 3. Using the manual multichannel pipettor, and being careful not to introduce bubbles into the plate, 50 μL of diluted NS3/NS4A-2 from step 1 was added to wells A02-H12 of the plate in step 2.
Step 4. Using the manual multichannel pipettor, and being careful not to introduce bubbles into the plate, 25 μL of the wells in drug dilution plate in step a was transferred to corresponding wells in assay plate in step 3. The tips on the multichannel pipettor were changed for each row of compounds transferred.
Step 5. Using the manual multichannel pipettor, and being careful not to introduce bubbles into the plate, the contents of the wells from the assay plate in step 4 were mixed by aspirating and dispensing 35 μL of the 75 μL in each well five times. The tips on multichannel pipettor were changed for each row of wells mixed.
Step 6. The plate was covered with a polystyrene plate lid, and the plate from step 5 containing NS3 protease and sample compounds was pre-incubated 10 minutes at room temperature.
While the plate from step 6 is pre-incubating, the RETS1 substrate was diluted in a 15 mL polypropylene centrifuge tube. The RETS1 substrate was diluted to 8 μM (1:80.75 of 646 μM stock−65 μL 646 μM stock+5184 μL assay buffer).
After the plate in step 6 finished pre-incubating, and using the manual multichannel, 25 μL of substrate was added to all wells on the plate. The contents of the wells of the plate were quickly mixed, as in step 5, mixing 65 μL of the 100 μL in the wells.
The plate was read in kinetic mode on the Molecular Devices SpectraMax Gemini XS plate reader. Reader settings: Read time: 30 minutes, Interval: 36 seconds, Reads: 51, Excitation λ: 335 nm, Emission λ: 495 nm, cutoff: 475 nm, Automix: off, Calibrate: once, PMT: high, Reads/well: 6, Vmax pts: 21 or 28/51 depending on length of linearity of reaction
IC50s are determined using a four parameter curve fit equation, and converted to Ki's using the following Km's: • Full-length E. coli NS3-2.03 μM • Full-length BV NS3-1.74 μM • where Ki=IC50/(1+[S]/Km))

The subject of experiment [2] is HCV sub-genomic replicon (I377/NS3-3′) in HuH-7 hepatoma cells (GS4.3). The experiment can be described thus: Quantitation by ELISA of NPTII in the HCV sub-genomic replicon, GS4.3. It counts as cell-based. The note with it: Hepatitis C virus, GS4.3 replicon cells, 72 h incubation. Here is the method: The HCV sub-genomic replicon (I377/NS3-3′, accession No. AJ242652), stably maintained in HuH-7 hepatoma cells, was created by Lohmann et al. Science 285: 110-113 (1999). The replicon-containing cell culture, designated GS4.3, was obtained from Dr. Christoph Seeger of the Institute for Cancer Research, Fox Chase Cancer Center, Philadelphia, Pa.
GS4.3 cells were maintained at 37° C., 5% CO2, in DMEM (Gibco 11965-092) supplemented with L-glutamine 200 mM (100×) (Gibco25030-081), non-essential amino acids (NEAA)(Biowhittaker 13-114E), heat-inactivated (HI) Fetal Bovine Serum(FBS)(Hyclone SH3007.03) and […] geneticin (G418)(Gibco 10131-035). Cells were sub-divided 1:3 or 4 every 2-3 days.
24 h prior to the assay, GS4.3 cells were collected, counted, and plated in 96-well plates (Costar 3585) at 7500 cells/well in 100 μL standard maintenance medium (above) and incubated in the conditions above. To initiate the assay, culture medium was removed, cells were washed once with PBS (Gibco 10010-023) and 90 μl Assay Medium (DMEM, L-glutamine, NEAA, 10% HI FBS, no G418) was added. Inhibitors were made as a 10× stock in Assay Medium, (3-fold dilutions from 10 μM to […] final concentration, final DMSO concentration 1%), 10 μL were added to duplicate wells, plates were rocked to mix, and incubated as above for 72 h.
An NPTII Elisa kit was obtained from AGDIA, Inc. (Compound direct ELISA test system for Neomycin Phosphotransferase II, PSP 73000/4800). Manufacturer's instructions were followed, with some modifications. 10×PEB-1 lysis buffer was made up to include 500 μM PMSF (Sigma P7626, 50 mM stock in isopropanol). After 72 h incubation, cells were washed once with PBS and 150 μL PEB-1 with PMSF was added per well. Plates were agitated vigorously for 15 minutes, room temperature, and then frozen at −70° C. Plates were thawed, lysates were mixed thoroughly, and 100 μL were applied to an NPTII Elisa plate. A standard curve was made. Lysate from DMSO-treated control cells was pooled, serially diluted with PEB-1 with PMSF, and applied to duplicate wells of the ELISA plate, in a range of initial lysate amount of 150 μL. In addition, 100 μL buffer alone was applied in duplicate as a blank. Plates were sealed and gently agitated at room temperature for 2 h. Following capture incubation, the plates were washed 5×300 μL with PBS-T (0.5% Tween-20, PBS-T was supplied in the ELISA kit). For detection, a 1× dilution of enzyme conjugate diluent MRS-2 (5×) was made in PBS-T, into which 1:100 dilutions of enzyme conjugates A and B were added, as per instructions. Plates were resealed, and incubated with agitation, covered, room temperature, for 2 h. The washing was then repeated and 100 μL of room temperature TMB substrate was added. After approximately 30 minutes incubation (room temperature, agitation, covered), the reaction was stopped with 50 μL 3M sulfuric acid. Plates were read at 450 nm on a Molecular Devices Versamax plate reader.
Inhibitor effect was expressed as a percentage of DMSO-treated control signal, and inhibition curves were calculated using a 4-parameter equation: y=A+4B−A)/(1+((C/x)̂D))), where C is half-maximal activity or EC50.
In general terms: ELISA stands for enzyme-linked immunosorbent assay.

Structures are written as SMILES.

T1 sequence (P27958 1027-1657, one chain of several): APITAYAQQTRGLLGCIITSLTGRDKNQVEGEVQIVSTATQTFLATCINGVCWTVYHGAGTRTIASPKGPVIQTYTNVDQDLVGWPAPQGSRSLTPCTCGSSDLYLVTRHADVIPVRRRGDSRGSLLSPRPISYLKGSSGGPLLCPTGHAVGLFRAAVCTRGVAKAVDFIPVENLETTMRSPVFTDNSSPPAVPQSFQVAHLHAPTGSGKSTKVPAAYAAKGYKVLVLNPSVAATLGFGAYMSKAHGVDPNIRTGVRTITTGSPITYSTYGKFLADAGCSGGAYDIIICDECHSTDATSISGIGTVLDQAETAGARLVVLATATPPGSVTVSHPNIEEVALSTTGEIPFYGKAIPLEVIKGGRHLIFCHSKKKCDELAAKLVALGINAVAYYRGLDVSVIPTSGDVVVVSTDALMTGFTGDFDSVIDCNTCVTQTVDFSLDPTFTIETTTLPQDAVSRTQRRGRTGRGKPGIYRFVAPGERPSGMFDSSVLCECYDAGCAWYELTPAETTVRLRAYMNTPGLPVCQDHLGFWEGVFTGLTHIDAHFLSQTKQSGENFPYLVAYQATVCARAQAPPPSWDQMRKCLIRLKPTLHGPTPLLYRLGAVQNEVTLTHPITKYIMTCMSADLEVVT

As for `CC[C@@H]1C[C@@]12NC(=O)[C@@H]1C[C@H](CN1C(=O)[C@@H](N)C(C)(C)C)Oc1nc3c(cccc3n1C(C)C)C1=NC(C(C)C)=C(CCCCCCCCS(=O)(=O)NC2=O)S1` [Compound 110], the IC50 – broadly, the concentration needed to halve the response being measured – in experiment [1] was ≥ 100 nM. The EC50 (commonly the concentration at which the effect is half-maximal) in experiment [2] is ≥ 100 nM.
`CC[C@@H]1C[C@@]12NC(=O)[C@@H]1C[C@H](CN1C(=O)[C@@H](NC(=O)OC(C)(C)C)C(C)(C)C)Oc1nc3c(cccc3n1C(C)C)CCCC/C=C/CCCC1(CC1)S(=O)(=O)NC2=O` [Compound 111] showed an IC50 in experiment [1] of 10 to 100 nM. The EC50 in experiment [2] was ≥ 100 nM.
For `CC[C@@H]1C[C@@]12NC(=O)[C@@H]1C[C@H](CN1C(=O)[C@@H](NC(=O)OC(C)(C)C)C(C)(C)C)Oc1nc3c(cccc3n1C(C)C)CCCCCCCCCC1(CC1)S(=O)(=O)NC2=O` [Compound 112], the IC50 in experiment [1] is ≤ 10 nM. Besides, in experiment [2], the EC50 was ≥ 100 nM.
In experiment [1], `CC[C@@H]1C[C@@]12NC(=O)[C@@H]1C[C@H](CN1C(=O)[C@@H](N)C(C)(C)C)Oc1nc3c(cccc3n1C(C)C)CCCCCCCCCC1(CC1)S(=O)(=O)NC2=O` [Compound 113] returned an IC50 of 10 to 100 nM. The EC50 in experiment [2] was ≥ 100 nM.
